Assay [1] concerns Human peripheral blood mononuclear (PBM) cells. Kind of assay: PHA-stimulated lymphocyte proliferation (3H-thymidine uptake). The assay is classed as cell-based. The following applies: Example 17. From the text:
A lymphocyte cell culture system was used to examine the ability of various polypeptides and conjugates to mimic the ability of Apo E to inhibit lymphocyte differentiation as evidence by proliferation.
Human peripheral blood mononuclear (PBM) cells are isolated from whole blood on a Ficoll-Hypaque gradient. The collected PBMs are washed three times with fresh medium (RPMI-1640 plus 5% fetal bovine serum, glutamine, penicillin, streptomycin and HEPES buffer). After washing, the cells are counted and set at a density of 1×10^5 /ml. For culture, 0.2 ml of the cells are plated per well of a 96-well microtiter plate. The peptide or conjugate is added to the wells in a 50 ul volume that can be either filter or UV sterilized. The typical timing for this experiment is to expose the cells to the Apo E polypeptide or self-conjugate over night. PHA, the mitogen that stimulates lymphocyte growth and proliferation, is added the next day. Forty-eight hours after the addition of PHA, 1 uCi of ^3 H-thymidine is added per well in a 1 ul volume and 18-24 hours later the cells are harvested on a mash. The mash cell harvester functions to collect the cells on filter paper where they are washed with buffer to remove free ^3 H-thymidine. The filter papers are dried, put into scintillation vials with scintillation cocktail and the B emissions obtained. Each data point collected represents the average thymidine uptake in four wells, and the standard error was less than 10% for all data points.
Various concentrations of various Apo E peptide were added to cultures that contained 8×10^5 peripheral blood mononuclear cells per ml. The cells were cultured at 37C and RPMI with 5% serum. All cells were exposed to PHA at 24 hours, labeled with 3H-thymidine at 72 hours and harvested at 90 hours. The counts per minute (cpm) of 3H-thymidine in the harvested cells was measured, and the data are expressed as the mean of four wells per treatment as a measure of thymidine uptake (x 1000 cpm). The standard deviation was less than 10% for all means.

Assay [2] has as its target LDL receptor (Homo sapiens, UniProt P01130). In words: fibroblast 125I-LDL degradation. The assay is classed as cell-based. The arrangement: transferred to DMEM medium with 10% lipoprotein-depleted serum (LPDS) for 48 hr to upregulate the LDL receptors; endogenous in cells; host or cells: normal fibroblasts. To be noted: low concentrations of the tandem peptide. As for the experimental part: A trimer of the p141-155 peptide, p(141-155)3, was synthesized as in Example 1 and its activity compared with p(141-155) (monomeric) and with p(141-155)2 (dimeric) peptide. Normal fibroblasts were plated in wells of a 96-well culture plate and grown for 96 hr in DMEM medium with 10% FBS. The cells were transferred to DMEM medium with 10% LPDS for 48 hr to up regulate the LDL receptors. The LDL degradation assay was performed according to Example 9 with 2 μg/ml of ^125 I-LDL (300-500 cpm/ng) in 0.2 ml/well in DMEM medium with 10% LPDS and incubated for 5 hr at 37° C. The supernatants removed from the wells were extracted with 10% TCA. The TCA soluble counts were normalized to protein content per well as measured by the Bio-Rad protein assay.

Chain of LDL receptor (P01130 22-860): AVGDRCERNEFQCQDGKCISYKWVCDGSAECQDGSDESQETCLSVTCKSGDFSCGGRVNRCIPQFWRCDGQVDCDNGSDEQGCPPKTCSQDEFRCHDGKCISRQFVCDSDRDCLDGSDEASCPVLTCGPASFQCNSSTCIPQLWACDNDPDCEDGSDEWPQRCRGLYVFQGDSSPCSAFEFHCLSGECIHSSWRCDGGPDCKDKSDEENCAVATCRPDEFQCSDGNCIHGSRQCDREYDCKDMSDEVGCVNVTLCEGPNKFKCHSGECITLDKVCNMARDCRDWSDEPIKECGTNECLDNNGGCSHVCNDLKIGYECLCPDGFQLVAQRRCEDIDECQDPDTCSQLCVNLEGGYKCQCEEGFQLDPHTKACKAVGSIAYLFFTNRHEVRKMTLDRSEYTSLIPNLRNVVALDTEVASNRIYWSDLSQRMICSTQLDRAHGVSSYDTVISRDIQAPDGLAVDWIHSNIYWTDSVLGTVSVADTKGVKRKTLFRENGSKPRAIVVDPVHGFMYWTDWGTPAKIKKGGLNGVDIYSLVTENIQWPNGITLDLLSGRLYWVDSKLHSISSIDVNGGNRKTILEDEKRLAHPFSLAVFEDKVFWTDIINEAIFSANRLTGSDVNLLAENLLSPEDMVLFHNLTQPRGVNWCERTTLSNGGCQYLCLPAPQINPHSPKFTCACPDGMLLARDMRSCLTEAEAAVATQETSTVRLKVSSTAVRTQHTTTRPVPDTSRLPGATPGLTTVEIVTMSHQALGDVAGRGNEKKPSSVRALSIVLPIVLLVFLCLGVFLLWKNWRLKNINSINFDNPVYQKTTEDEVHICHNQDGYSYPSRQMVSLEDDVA

Take `CC(C)C[C@H](NC(=O)[C@H](CC(=O)O)NC(=O)[C@H](CC(=O)O)NC(=O)[C@H](C)NC(=O)[C@H](CC(=O)O)NC(=O)[C@H](CCCNC(=N)N)NC(=O)[C@H](CC(C)C)NC(=O)[C@H](CC(C)C)NC(=O)[C@H](CCCNC(=N)N)NC(=O)[C@H](CCCCN)NC(=O)[C@H](CCCNC(=N)N)NC(=O)[C@H](CC(C)C)NC(=O)[C@H](CCCCN)NC(=O)[C@H](CCCNC(=N)N)NC(=O)[C@H](CC(C)C)NC(=O)[C@H](CC(C)C)NC(=O)[C@H](CC(=O)O)NC(=O)[C@H](CC(=O)O)NC(=O)[C@H](C)NC(=O)[C@H](CC(=O)O)NC(=O)[C@H](CCCNC(=N)N)NC(=O)[C@H](CC(C)C)NC(=O)[C@H](CC(C)C)NC(=O)[C@H](CCCNC(=N)N)NC(=O)[C@H](CCCCN)NC(=O)[C@H](CCCNC(=N)N)NC(=O)[C@H](CC(C)C)NC(=O)[C@H](CCCCN)NC(=O)[C@H](CCCNC(=N)N)NC(=O)[C@@H](N)CC(C)C)C(=O)O` [p(141-155)2]: the “ED50 or dose of peptide required to inhibit lymphocyte proliferation 50%” value in assay [1] came to 20 µM. Also, the “effect on LDL degradation by fibroblasts” value in assay [2] is “significant enhancement”.
